# The source made the active and inactive calls. The rule behind the calls is not given here.
# Experiments:
# [1] = test system: C6; experiment: Cytotoxicity against rat C6 after 24 hrs by MTT assay; assay type: functional, cell-based
# [2] = test system: RBL-2H3; experiment: Cytotoxicity against rat RBL2H3 after 24 hrs by MTT assay; assay type: functional, cell-based; conditions: RBL-2H3, 24 h
SMILES,Activity [1],IC50 [2]
CC(C)CC(=O)C[C@](C)(O)[C@H]1CC[C@H]2[C@@H]3C[C@H](O[C@@H]4O[C@H](C)[C@@H](O)[C@H](O[C@@H]5O[C@H](CO)[C@@H](O[C@@H]6O[C@H](C)[C@@H](O)[C@H](O)[C@H]6O[C@@H]6O[C@H](C)[C@H](O)[C@H](O)[C@H]6O)[C@H](O)[C@H]5O[C@@H]5O[C@H](C)[C@@H](O)[C@H](O)[C@H]5O)[C@H]4O)[C@H]4C[C@@H](OS(=O)(=O)[O-])CC[C@]4(C)C3=CC[C@@]21C.[Na+] [LUIDIAQUINOSIDE],inactive,31.3 µg/mL
CC(C)CC(=O)C[C@](C)(O)[C@H]1CC[C@H]2[C@@H]3C[C@H](O[C@@H]4O[C@H](C)[C@@H](O)[C@H](O[C@@H]5OC[C@@H](O[C@@H]6O[C@H](CO)[C@H](O)[C@H](O)[C@H]6O[C@@H]6O[C@H](C)[C@H](O)[C@H](O[C@@H]7O[C@@H](CO)[C@H](O)[C@H]7O)[C@H]6O)[C@H](O)[C@H]5O[C@@H]5O[C@H](C)[C@@H](O)[C@H](O)[C@H]5O)[C@H]4O)[C@H]4C[C@@H](OS(=O)(=O)[O-])CC[C@]4(C)C3=CC[C@@]21C.[Na+] [PSILASTEROSIDE],inactive,5.4 µg/mL

# From ChEMBL document CHEMBL1159360, “Bioactive asterosaponins from the starfish Luidia quinaria and Psilaster cassiope. Isolation and structure characterization by two-dimensional NMR spectroscopy” (J Nat Prod, 2003)
